According to patent US20180221463A1, “Modified NK Cells and Uses Thereof” (priority 2017, published 2018):

Experiments:
SMAD3 [1] = target: T1, SMAD3 (Homo sapiens, UniProt P84022); test: Blockade of Smad3 in NK-92 cells under TGF-β1: E4BP4 and IFN-γ levels; type: cell-based; details: high TGF-β1 (5 ng/ml), SIS3 5 μM
T1 construct: NK-92 cells were pretreated with SIS3 at various concentrations for 2 hours; endogenous in cells; host or cells: NK-92 (human NK cell line)
Protocol: To reveal the regulatory role of SMAD3 and E4BP4 in the production of IFN-γ in NK-92 cells, a specific inhibitor of SMAD3 known as SIS3 (Sigma) was used in this study. Briefly, NK-92 cells were pretreated with SIS3 at various concentrations for 2 hours. The cells were then treated with TGF-β1 at the final concentration of 5 ng/ml for 45 min and harvested for detection of the phosphorylation level of SMAD3 with western blot. The dosage of SIS3 that induced the maximum effect of phosphorylation inhibition of SMAD3 was determined as the optimal dosage of SIS3 used in further experiment. NK-92 cells were then pretreated with or without SIS3 at the determined concentration for 2 hours followed by stimulation with TGF-β1 at the final concentration of 5 ng/ml for 12 hours. The cells were harvested to detect the level of E4BP4 and IFN-γ.

SMAD3 [2] = test: SMAD3 knockdown in NK-92 cells, real-time PCR and western blot; type: cell-based, human
Protocol: NK-92 cells were transduced with rLV-hSMAD3 and selected with puromycin (InvivoGen). Briefly, NK-92 cells were seeded in a 24-well plate at a density of 1×10^6/ml and mixed with ploybrene (Santa Cruz) at final concentration of 5 ug/ml and rLV-hSmad3 at MOI (multiplicity of infection) equal to 50 overnight at 37° C. The transduced cells were then expanded in complete medium and selected with puromycin at a final concentration of 2 ug/ml. The expression level of SMAD3 in the puromycin resistant clone was determined by real-time PCR with corresponding primers (Table 2) and Western blot analysis with rabbit anti human SMAD3 antibody (Abcam) respectively.
Total RNA from cells was isolated using the PureLink™ RNA Mini kit (Life Technologies) according to the manufacturer's instruction. The reverse transcription reaction was conducted with C1000 thermal cycler. The cDNA was then diluted with 40 ul RNase-free water and used as the template in real-time polymerase chain reaction.

T1 sequence (P84022 whole entry): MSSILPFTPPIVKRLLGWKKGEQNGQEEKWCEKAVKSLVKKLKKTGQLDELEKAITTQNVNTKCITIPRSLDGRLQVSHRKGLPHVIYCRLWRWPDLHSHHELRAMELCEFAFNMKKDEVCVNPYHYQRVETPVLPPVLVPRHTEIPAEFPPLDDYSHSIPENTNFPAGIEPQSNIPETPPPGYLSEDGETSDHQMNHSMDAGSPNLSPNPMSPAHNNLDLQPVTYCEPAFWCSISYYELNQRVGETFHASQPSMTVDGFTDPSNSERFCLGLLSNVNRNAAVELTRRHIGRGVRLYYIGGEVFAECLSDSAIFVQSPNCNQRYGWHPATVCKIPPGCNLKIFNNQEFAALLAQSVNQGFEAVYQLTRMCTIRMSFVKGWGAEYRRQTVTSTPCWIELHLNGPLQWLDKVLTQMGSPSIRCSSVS

Row | Compound | expressions of E4BP4 mRNA and protein (SMAD3 [1]) | production of IFN-γ (SMAD3 [1]) | mRNA expression of SMAD3 (SMAD3 [2]; real-time PCR) | decrease in SMAD3 protein (SMAD3 [2]; western blot)
1 | COc1cc2c(cc1OC)CN(C(=O)/C=C/c1c(-c3ccccc3)n(C)c3ncccc13)CC2 [SIS3] | markedly increase | markedly increase |  | 
2 | shRNA-hSmad3: shRNA specifically against human SMAD3 mRNA, sequence GGAGAAATGGTGCGAGAAG (Table 3), delivered by lentivirus (shRNA hairpin; lentiviral delivery) |  |  | largely down-regulated | more than 70%
